Literature values as cited in patent US9180195B2, “Controlled release gels” (Nano Fiber Matrices B.V., priority 2005, dated 2015).

Conditions: for time to complete release from LMWG gel: from gels of N,N′-dibenzoyl-L-cystine (DBC)

Row | Structure (SMILES) | time to complete release from LMWG gel | initial release rate relative to AQ (from gels of DBC)
1 | Nc1cccc2cccnc12 [AQ, 8-aminoquinoline] | ~1 h | –
2 | Oc1ccc2ccccc2n1 [HQ, 2-hydroxyquinoline] | approximately 15 min | approximately seven
